Measurements taken from US12358954B2, “Capsid-modified rAAV vector compositions and methods therefor” (priority 2012, dated 2025).

Experiments:
[1] = tested on: non-canonical NF-κB pathway (p100, p52); test: Western blot of NF-κB pathway components in HeLa cells; format: cell-based, human
Excerpt: Western Blot Analyses. Homogenized lysates of the cell pellets from ˜2×10^6 HeLa cells or DCs, mock or pre-treated with the optimal concentration of NF-κB activators or inhibitors were used for sample preparation. Whole cell proteins were isolated using the RIPA lysis buffer (Sigma-Aldrich Co.) and cytoplasmic and nuclear proteins were extracted using a commercial kit (NE-PER Extraction Reagent Kit, Pierce Biotech, Rockford, Ill., USA) as per the manufacturer's protocol in the presence of a protease inhibitor cocktail (Halt™ Protease Inhibitor Cocktail Kit, Pierce Biotech). The protein extracts were boiled for 5 min under reducing conditions [SDS-sample buffer containing 62.5 mM Tris-HCl (pH 6.8 at 25° C.), 2% wt./vol. SDS, 10% glycerol, 50 mM DTT, 0.01% wt./vol. bromo-phenol blue (Cell Signaling Technology, Inc.)] and stored at −86° C. until further analysis. Equal volumes of samples were run on 4-15% SDS-PAGE (Bio-Rad, Hercules, Calif., USA). […] The intensity of the protein bands was measured with Adobe Photoshop CS3 Software® and normalized to proteins levels from the housekeeping gene products used as loading controls.

[2] = tested on: primary human dendritic cells; test: FACS analyses of markers of maturation (CD83, CD86) of primary human dendritic cells; format: cell-based
Procedure: Cells, Antibodies and Chemicals. HeLa cells were obtained from the American Type Culture Collection (Rockville, Md., USA) and maintained as monolayer cultures in Iscove's-modified Dulbecco's medium (IMDM, Invitrogen, Inc., Carlsbad, Calif., USA) supplemented with 10% newborn calf serum (NCS) (Lonza, Inc., Basel, SWITZERLAND) and antibiotics. Leukapheresis-derived PBMCs were resuspended in serum-free AIM-V medium (Lonza, Inc.) and semi-adherent cell fractions were incubated in serum-free AIM-V medium supplemented with recombinant human IL-4 (500 U/mL) and GM-CSF (800 U/mL) (R&D Systems, MN, USA). Cells were treated with NF-κB modulators ([…]), and cytokines cocktail including 10 ng/mL TNF-α, 10 ng/mL IL-1, 10 ng/mL IL-6, […] (R&D Systems) for 20 hr. Cells were harvested, characterized to ensure they met the typical phenotype of mature DCs (CD83, RPE, murine IgG1, CD86, FITC, murine IgG1; Invitrogen, Inc.). All primary and secondary antibodies were purchased from Cell Signaling Technology, Inc. (Danvers, Mass., USA) or Santa Cruz Biotechnology, Inc (Santa Cruz, Calif., USA). NF-kB activators [Etoposide (VP16), Aphidicolin, Hydroxyurea (HU)] and NF-kB inhibitors [Bay11-7082 (Bay11), Pyrrolidine dithiocarbamate (PDTC)] were purchased from Sigma-Aldrich Co. (St. Louis, Mo., USA). These compounds were re-suspended in either DMSO (Sigma-Aldrich Co.) or in sterile, DNAase-, RNAase-free water (Invitrogen, Inc.) as per the manufacturer's instructions.

[3] = tested on: pro-inflammatory cytokines and chemokines; test: Gene-expression analysis of innate immune response in liver by RT-PCR; format: in vivo, C57BL/6J mice
Procedure: Recombinant AAV Vector Transduction Studies in Vivo. Groups of 6-weeks old normal C57BL/6J mice (Jackson Laboratories, Bar Harbor, Me., USA) were administered intra-peritoneally, with a single dose (20 mg/kg) of NF-κB inhibitor Bay11, in a 200-μL volume diluted in DMSO (day 0). Animals injected with only the DMSO carrier solvent were considered as baseline (mock) group (n=75) and animals injected with Bay11 were the test group (n=75). At this point, the animals from mock and Bay11 groups were randomized to receive either phosphate buffered saline (PBS, pH 7.4) or WT-AAV or TM-AAV vectors (n=25 mice each group). On day 1, ˜1×10^11 viral genome (vg) particles of WT-AAV2-EGFP or TM-AAV2-EGFP vectors or PBS were administered intravenously via the tail vein. To measure the modulation of immune response to AAV, 5 animals each from PBS-, WT-AAV-, or TM-AAV vector-injected groups were sacrificed by carbon-dioxide inhalation at different time points post-vector administration (2, 6, 10, 24 hrs and day 10). Hepatic lobes were collected, cross-sectioned and mounted on slides to study the effect of Bay11 on AAV-mediated EGFP expression (from day 10 mice). […]
Gene-Expression Analysis of Innate Immune Response by RT-PCR Assay. […] Data were captured and analyzed using an ABI Prism 7500 Sequence Detection System with v1.1 Software (Applied Biosystems). The baseline was determined automatically for the 18S rRNA and for other genes. Thresholds were determined manually for all genes. Gene expression was measured by the comparative threshold cycle (Ct) method. The parameter threshold cycle (Ct) was defined as the cycle number at which the reporter fluorescence generated by the cleavage of the probe passed a fixed threshold above baseline. […] Relative gene expression was determined for each group of treated and untreated animals and values >2.6 and <0.38 were considered as significant up-regulations and down-regulations between the groups and was calculated by assessing the variability in the 96 well plates used to measure specific gene expression.

[4] = Mature DCs + AAV + Cytokines + modulator

Compound: Cc1ccc(S(=O)(=O)/C=C/C#N)cc1 [Bay11, Bay11-7082]
- AAV-induced increase of p100 and p52 [1]: ablated
- maturation of DCs (CD83, CD86) [2]: inhibition of cytokine-mediated maturation
- Geometric means of levels of expression in cells expressing CD83 [2, 4]: 16.88
- Geometric means of levels of expression in cells expressing CD86 [2, 4]: 10.11
- levels of pro-inflammatory cytokines or chemokines (IL-1α, IL-6, TNFα, IL-12α, KC, RANTES) in liver ([3]; Bay11 20 mg/kg i.p. 12 hrs prior to vector, 2 hrs post-vector): significantly reduced
- decrease in AAV vector-induced production of pro-inflammatory cytokines and chemokines ([3]; Bay11 prior to gene transfer, C57BL/6 mice): up to 7 fold
- up-regulation of type I interferon expression by WT-AAV and TM-AAV vectors ([3]; mouse, in vivo): unaffected
